Active and inactive are the calls of the source. The rule behind the calls is not given here. Some results are limits rather than exact numbers.

For the assay, the target named is Peptidyl-prolyl cis-trans isomerase FKBP1A (Homo sapiens) (UniProt P62942). The assay is described as follows: FKBP12 binders, biophysical, NMR detection (AID 608). As to conditions: NMR binding, purified FKBP12.
Peptidyl-prolyl cis-trans isomerase FKBP1A (Homo sapiens), sequence (P62942 whole entry, looked up): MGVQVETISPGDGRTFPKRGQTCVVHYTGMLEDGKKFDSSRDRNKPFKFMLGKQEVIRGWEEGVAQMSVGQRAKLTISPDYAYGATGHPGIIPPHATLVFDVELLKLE
On to `C[C@H]1C(=O)CCC2[C@]3(C)CC[C@@]4(C)C5CC(C)(C)CC[C@]5(C)CC[C@]4(C)C3CC[C@@]21C` (stereo not given in full), for which the Kd is > 4 mM (inactive). The result for `Cc1cc(C)n(CC(=O)NC2CCCCC2)n1` reads > 4 mM (inactive); that for `COc1ccc(CC(=O)c2ccc(O)cc2O)cc1`, > 4 mM (inactive).

`Nc1nc(-c2ccc(F)c(F)c2)cs1`: the Kd was > 4 mM (inactive).

Turning to `Cn1nc(C(=O)N2CCCC2)c2ccccc2c1=O`, the Kd is > 4 mM (inactive).

On to `O=c1[nH]cnc2c1nnn2Cc1ccccc1`, for which the Kd is > 4 mM (inactive). The result for `CCC(C)C(=O)O[C@H]1[C@H](O)C2C(CN3CC(C)CCC3[C@@]2(C)O)C2C[C@]34O[C@]5(O)C(OC(=O)C(C)(O)CC)CC[C@@]3(C)C5C(OC(C)=O)[C@@H](OC(C)=O)C4[C@@]21O` (stereo not given in full) reads > 4 mM (inactive); that for `CC(=O)O[C@@H]1C[C@@]2(C)[C@H](c3ccoc3)C[C@H]3O[C@]32[C@]2(C)C(=O)C(O)=C3C(C)(C)C(=O)C=C[C@]3(C)C12` (stereo not given in full), > 4 mM (inactive); that for `Cc1cc(C)c(C#N)c(N2CCCC2)n1`, > 4 mM (inactive).

For `CC(CO)NC(=O)C1C=C2c3cccc4[nH]cc(c34)C[C@H]2N(C)C1` (stereo not given in full), the Kd is > 4 mM (inactive). As for `O=C(O)c1[nH]nc2c1COc1ccccc1-2`, the figure is > 4 mM (inactive). Take `NCc1ccc(-c2cccs2)cc1`: the Kd is > 4 mM (inactive). Consider `OCc1ccc(-n2cccn2)cc1`, for which the Kd was > 4 mM (inactive). With `CCOC(=O)c1cc(C)n(-n2cnnc2)c1C`, the Kd is > 4 mM (inactive). As for `COC(=O)Nc1ccc2ncn(C)c(=O)c2c1`, the figure is > 4 mM (inactive). With `NC(=O)C(=O)Nc1nc(-c2ccccc2)cs1`, the Kd is > 4 mM (inactive). As for `CC1(C)C(=O)N(O)C(C)(C)C(=O)N1O`, the Kd was > 4 mM (inactive). As for `Cc1n[nH]c(=S)[nH]c1=O`, the figure is > 4 mM (inactive); as for `Cc1nc(-c2ccccc2)sc1CN`, > 4 mM (inactive); as for `CC(C)Oc1ccc(C2CC(=O)NNC2=O)cc1` (stereo not given), > 4 mM (inactive).

As for `CC1=C2[C@H]3OC(=O)[C@@H](C)[C@@H]3CC[C@@]2(C)C=CC1=O`, the Kd is > 4 mM (inactive).

In the case of `O=C(Nc1nc2c(s1)CCCC2)c1cccnc1`, the Kd was > 4 mM (inactive). For the molecule `O=C1CSC(=Nc2ccc(O)cc2)N1`, the Kd was > 4 mM (inactive). The result for `CC1(C)CC2(C)N(N)C(=O)CN2C(=S)N1` (stereo not given) reads > 4 mM (inactive). `CS(=O)(=O)N/N=C/c1cccs1`: the Kd is > 4 mM (inactive).

For the molecule `CCOC(=O)C1=C(C)N2CCN=C2S1`, the Kd is > 4 mM (inactive). The result for `C/C=C(\C)C(=O)OC1[C@@H]2C=C3C(CC[C@]4(C)C3CC(=O)O[C@H]4c3ccoc3)C(C)(C2=O)[C@@H](C(O)C(=O)OC)C1(C)C` (stereo not given in full) reads > 4 mM (inactive); that for `O=C1C2C3C=CC(C3)C2C(=O)N1c1nccs1` (stereo not given), > 4 mM (inactive); that for `CC(=O)Oc1ccc(-c2nc(-c3cccnc3)no2)cc1`, > 4 mM (inactive).

On to `NC(=S)N1CCC(c2ccccc2)=N1`, for which the Kd was > 4 mM (inactive). The result for `Clc1ccccc1OCc1nc(-c2ccncc2)no1` reads > 4 mM (inactive); that for `O=C1NCCCC1C(=O)N/N=C/c1ccccc1` (stereo not given), > 4 mM (inactive); that for `Cc1cc(SCC(=O)Nc2nccs2)nc(=O)[nH]1`, > 4 mM (inactive).

For `CC1(C(=O)O)CC2C=CC1C2` (stereo not given), the Kd is > 4 mM (inactive). The result for `C=C[C@](C)(O)CCC=C(C)C` reads > 4 mM (inactive); that for `O=C1NC(=Nc2ccc(O)cc2)S/C1=C/c1ccco1`, > 4 mM (inactive).

For `OCC1COc2ccccc2C1` (stereo not given), the Kd is > 4 mM (inactive).

As to `CCc1ccc(C(=O)N2CCCC2)s1`, the Kd is > 4 mM (inactive). Turning to `NC(N)=NOCC[C@H](N)C(=O)O`, the Kd was > 4 mM (inactive). The result for `OC[C@H]1O[C@@H](O[C@H]2[C@H](O)[C@@H](O)[C@@H](O)O[C@@H]2CO)[C@H](O)[C@@H](O)[C@@H]1O` reads > 4 mM (inactive).

For `CN(C)CCCN1CNC(=S)NC1`, the Kd was > 4 mM (inactive). For the molecule `c1ccc(-c2n[nH]c(-c3ccccn3)n2)nc1`, the Kd was > 4 mM (inactive).

Take `O=C(Nc1nnc(C(F)(F)F)s1)c1cccnc1`: the Kd is > 4 mM (inactive). As for `Cc1occc1C(=O)Nc1nnc(-c2ccncc2)s1`, the figure is > 4 mM (inactive); as for `Nc1ccc(C(=O)NCC2CCCO2)cc1` (stereo not given), > 4 mM (inactive); as for `COc1cc(C(C)=O)ccc1OC(=O)N1CCOCC1`, > 4 mM (inactive). For `Cc1nnc2sc(-c3csc4c3CCCC4)nn12`, the Kd was > 4 mM (inactive). The result for `Cn1nc(C(=O)NCc2cccnc2)c2ccccc2c1=O` reads > 4 mM (inactive); that for `NC(=O)c1ccc(NC(=O)c2cccnc2)cc1`, > 4 mM (inactive). Regarding `CSc1nc(NC(C)(C)C)nc(N2CCOCC2)n1`, the Kd is > 4 mM (inactive). As for `CC(=O)CC(=O)N1C(O)CC[N+]1(C)C` (stereo not given), the figure is > 4 mM (inactive); as for `Fc1cccc(Cl)c1CN1CCCNCC1`, > 4 mM (inactive). The result for `O=c1ccn([C@@H]2O[C@H](COP(=O)(O)OP(=O)(O)OP(=O)(O)O)[C@@H](O)[C@H]2O)c(=O)[nH]1` reads > 4 mM (inactive); that for `CSc1ncnc2nc[nH]c12`, > 4 mM (inactive). As for `Cc1ccc(NS(=O)(=O)N2CCOCC2)cc1`, the entry is “inactive”; as for `COc1cc(CNCCc2ccc(S(N)(=O)=O)cc2)ccc1OCC(=O)N1CCOCC1`, > 4 mM (inactive); as for `CC1(C)C(=O)C=C[C@@]2(C)C1=C(O)C(=O)[C@]1(C)C2CC[C@@]2(C)[C@H](c3ccoc3)C[C@H]3O[C@]321` (stereo not given in full), > 4 mM (inactive). As to `Cc1noc(C)c1C(=O)N1CCN(c2ncccn2)CC1`, the Kd was > 4 mM (inactive). The result for `Cc1ccc(C)c(S(=O)(=O)NCc2cccnc2)c1` reads > 4 mM (inactive); that for `O=C1Nc2ccccc2C1C1(O)C(=O)Nc2ccc(F)cc21` (stereo not given), > 4 mM (inactive). As for `Cc1ccc(C(=O)CS(C)(=O)=O)cc1`, the figure is > 4 mM (inactive).

With `O=C(O)c1ccc(N2CCOCC2)nc1`, the Kd was > 4 mM (inactive).

For the molecule `Cc1ccc(NS(=O)(=O)N2CCCCC2)cc1Cl`, the Kd result was “inactive”. Consider `C=C1CCC2C(CC2(C)C)C(=C)CC/C1=N/O` (stereo not given), for which the Kd is > 4 mM (inactive). The result for `C=Cc1c(C)c2cc3[nH]c(cc4nc(cc5nc(cc1[nH]2)C(C)=C5CCC(=O)O)C(CCC(=O)O)=C4C)c(C)c3C=C` reads > 4 mM (inactive); that for `Cc1nc2ccccc2c(=O)[nH]1`, > 4 mM (inactive); that for `Cc1nn2c(nc1=O)SCC2(O)c1ccccc1` (stereo not given), > 4 mM (inactive). As for `Cc1c(N=Cc2ccc[nH]2)c(=O)n(-c2ccccc2)n1C`, the Kd was > 4 mM (inactive). As for `Cn1c(NCc2ccccc2O)nc2ccccc21`, the figure is > 4 mM (inactive); as for `CSc1nc(O)cc(=O)[nH]1`, > 4 mM (inactive).

The values above are taken from PubChem BioAssay AID608 (Sanford-Burnham Center for Chemical Genomics, 2007).
